Test results as given in ChEMBL document CHEMBL1152037, “Novel peptidomimetics: inhibitors of substance P endopeptidase” (Bioorg Med Chem Lett, 1992).
Peptide text beside a SMILES is read from it. * marks the point of attachment. X1 = CSCC[C@H](NC(=O)[C@H](CC(C)C)NC(=O)CNC(=O)C(/C=C/[C@H](Cc1ccccc1)N*)(Cc1ccccc1)Cc1ccccc1)C(N)=O

What was measured:
[1] = Ability to inhibit substance P endopeptidase at concentration of 1.5 uM
[2] = Ability to inhibit substance P endopeptidase at concentration of 10 uM

inhibition [1]	inhibition [2]	Compound
50%		N[C@H](/C=C/C(CO)(Cc1ccccc1)Cc1ccccc1)Cc1ccccc1
	50%	CSCC[C@H](NC(=O)[C@H](CC(C)C)NC(=O)CNC(=O)C(/C=C/[C@H](Cc1ccccc1)NC(=O)[C@H](CCC(N)=O)NC(=O)[C@H](CCC(N)=O)NC(=O)[C@@H]1CCCN1C(=O)[C@H](CCCCN)NC(=O)[C@@H]1CCCN1C(=O)[C@@H](N)CCCN=C(N)N)(Cc1ccccc1)Cc1ccccc1)C(N)=O (H-RPKPQQ-X1)
